“Also recorded” adds a separate entry of the source. Bridge positions count the residues as written; N and C are the ends. Square brackets hold non-standard residues; d marks the D form. Peptide text beside a SMILES is read from it. S5 = C=CCCC[C@](C)(N)C(=O)O
Key:
talin rod R7R8 domains = target: T1, talin rod R7R8 domains (Mus musculus, UniProt P26039); assay: Fluorescent polarization (FP) binding assay, talin rod R7R8; conditions: S-TBS versus TBS, from FP Kd values
T1 construct: talin rod R7R8 and talin head (residues 1-430) were measured using fluorophore-labeled peptides and recombinantly expressed, purified talin proteins; made in house
T1 sequence (P26039 1359-1659 limits assumed): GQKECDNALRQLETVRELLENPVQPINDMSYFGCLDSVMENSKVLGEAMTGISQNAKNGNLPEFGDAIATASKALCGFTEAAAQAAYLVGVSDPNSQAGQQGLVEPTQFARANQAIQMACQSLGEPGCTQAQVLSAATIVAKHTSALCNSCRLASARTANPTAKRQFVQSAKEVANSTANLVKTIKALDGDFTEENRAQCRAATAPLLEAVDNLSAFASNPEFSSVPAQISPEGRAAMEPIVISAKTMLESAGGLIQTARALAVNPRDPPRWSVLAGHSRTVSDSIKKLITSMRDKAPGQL
Experimental: (§1) To assess the binding affinities of S-TBS with talin, the Kd of TBS and S-TBS peptides with talin rod R7R8 and talin head (residues 1-430) were measured using fluorophore-labeled peptides and recombinantly expressed, purified talin proteins by FP assays. […] This gain of affinity may be attributed to the C8 staple as it stabilizes the helical structure of TBS, and the enhanced hydrophobic interaction between S-TBS and talin rod. The enhanced binding of S-TBS to talin further validates the design strategy of using stapled peptides as a potent competitive inhibitor.
(§2) Fluorescent Polarization: Mixtures were prepared of purified talin proteins at a series concentration (R7R8: 0.2 μM to 20 μM; THD/b3-THD: 5 μM to 100 μM), or buffer only, with 20 nM FITC-labeled S-TBS (New England Peptide) in a buffer containing 20 mM HEPES, pH 7.5, 100 mM NaCl, and 2 mM DTT. After five minutes of incubation, 20 μl of the reaction mix was added to individual wells of a 384-well assay plate (Corning) and then measured fluorescence polarization at room temperature using a plate reader. A […] as emission polarization filters. FP signals were normalized against buffer-only background and then fit to a single-site (saturating) binding model using SigmaPlot (Systat Software).

integrin αIIbβ3 [1] = assay: Integrin activation assay, wild-type talin head domain; format: cell-based; conditions: CHO-A5 cells expressing GFP-tagged wild-type talin head domain; TBS 100 μM, S-TBS 10 and 100 μM, 30 minutes; PAC1 flow cytometry
Experimental: (§3) Assessing integrin activation: CHO-A5 cells were transfected with GFP-tagged talin-head domain (residues 1-430, WT or W359A) and incubated for 24 hours at 37° C. The cells were subsequently treated with WT-TBS at 100 μM or Staple-TBS (at 10 and 100 μM) for 30 minutes at 37° C. and washed twice with PBS, harvested in trypsin-EDTA, and centrifuged at 2,000 rpm for 5 minutes. The cells were incubated in Tyrode's buffer (136.9 mM NaCl, 10 mM HEPES, 5.5 mM glucose, 11.9 mM NaHCO3, 2.7 mM KCl, 0.5 mM CaCl2), 1.5 mM MgCl2, and 0.4 mM NaH2PO4, pH 7.4) containing PAC1 antibody for 1 hour at 30° C. and then stained with Alexa 647 (goat anti-mouse IgM) for 30 minutes at RT. The cells were quantified with an LSR flow cytometer using 30,000 cells per measurement.
(§4) The effect of S-TBS on talin-induced activation of integrin αIIbβ3 was examined. CHO-A5 cells that stably express integrin αIIbβ3 were transfected with a green fluorescent protein-tagged talin head domain, treated with S-TBS or TBS, and then subjected flow cytometry analysis for integrin αIIbβ3 activity. […]
(§5) Integrin activation assays: CHO-A5 cells were transfected with talin-head domain, wild-type or W359A, and incubated for 24 hours at 37° C. […] The cells were quantified with a Beckton, Dickenson & Co. Biosciences LSR flow cytometer (660/20 filter, 640 nm laser) using 30,000 cells per measurement.

integrin αIIbβ3 [2] = assay: Integrin activation assay, inactive talin head mutant THD-W359A; format: cell-based; conditions: CHO-A5 cells transfected with THD-W359A; TBS 100 μM, S-TBS 10 and 100 μM; PAC1 flow cytometry
Experimental: as §3, §4, §5

HeLa cells = assay: Cell toxicity assay, HeLa; format: cell-based; conditions: 40 μM, treated one hour then washed away, viability at 24 and 48 hours
Experimental: (§6) The cell toxicity of the peptides was then examined. HEK, MCF-7, and HeLa were used. Cells were treated with S-TBS 40 μm for one hour. The S-TBS was then washed away and the viability measured at 24 and 48 hours. No impact on HEK, MCF-7, and HeLa cell growth was observed.

MCF-7 cells = assay: Cell toxicity assay, MCF-7; format: cell-based; conditions: 40 μM, treated one hour then washed away, viability at 24 and 48 hours
Experimental: as §6

CHO cell = assay: Cell toxicity, CHO cell growth; format: cell-based
[3] = target: T2, talin head (residues 1-430) (Mus musculus, UniProt P26039); assay: Fluorescent polarization (FP) binding assay, talin head
T2 construct: talin rod R7R8 and talin head (residues 1-430) were measured; made in house
Experimental: as §1, §2

CHO-A5 cells = assay: Cell permeability assay (flow cytometry uptake of fluorophore-labelled peptide); format: in vitro ADME
Experimental: Assessing membrane permeability: CHO-A5 cells were treated with FAM-labelled WT-TBS (1, 10, and 50 μM), or with FITC-labelled stapled-TBS (1, 10, and 50 μM), and incubated for 30 minutes at 37° C. The cells were washed twice with phosphate-buffered saline (PBS), harvested in trypsin-EDTA, and centrifuged at 2,000 rpm for 5 minutes. The cells were resuspended in PBS and quantified with an LSR flow cytometer using 30,000 cells per measurement.
A common challenge for peptidomimetic drugs that target intracellular proteins is the poor cell membrane permeability. To assess the effect of the C8 staple on cell permeability, FITC-labeled S-TBS were incubated with CHO cells at various concentration and examined S-TBS uptake by flow cytometry. […] The assay was then performed using lower doses of peptides and quantified the signals for statistical analyses. […] In contrast, TBS requires a concentration of at least 5 μM for cell uptake (FIG. 3, Panel B).
Cell permeability assay: CHO-A5 cells were plated in 6-well dishes, and then treated with fluorophore labeled TBS or S-TBS peptides at indicated concentrations for 30 minutes at 37° C. The cells were then washed twice with phosphate-buffered saline (PBS), detached by adding a mixture of trypsin and […] (“trypsin-EDTA”) and harvested by spinning at 2,000 rpm for 5 minutes. The cells were resuspended in PBS and quantified with an LSR flow cytometer (525/50 filter, 488 nm laser) using 30,000 cells per measurement.

HEK-293 cells = assay: Cell toxicity assay, HEK-293; format: cell-based; conditions: 40 μM, treated one hour then washed away, viability at 24 and 48 hours
Experimental: as §6

Jurkat T-cell = assay: Cell toxicity, Jurkat T-cell growth; format: cell-based

Compound: CC[C@H](C)[C@H](NC(=O)[C@H](CC(=O)O)NC(=O)[C@H](CCC(=O)O)NC(=O)[C@@H](N)CC(N)=O)C(=O)N[C@@H](CC(=O)O)C(=O)N[C@@H](CCC(N)=O)C(=O)N[C@@H](CCSC)C(=O)N[C@@H](Cc1ccccc1)C(=O)N[C@@H](CO)C(=O)N[C@H](C(=O)N[C@@H](CC(C)C)C(=O)N[C@@H](CC(C)C)C(=O)NCC(=O)N[C@@H](CCC(=O)O)C(=O)N[C@@]1(C)CCCC=CCCC[C@@](C)(C(=O)N[C@@H](CCC(N)=O)C(=O)N[C@@H](CO)C(=O)O)NC(=O)[C@H](CC(C)C)NC(=O)[C@H](CC(C)C)NC(=O)[C@H](CC(=O)O)NC1=O)[C@@H](C)O [S-TBS, (Stp(15,19))H2N-NEDIDQMFSTLLGE(S5)DLL(S5)QS-OH] (H-NEDIDQMFSTLLGE[S5]DLL[S5]QS-OH; staple 15-19)
- fold stronger binding to R7R8 than TBS (talin rod R7R8 domains): 6 fold
- integrin αIIbβ3 activity (talin-induced activation) (integrin αIIbβ3 [1]): significantly suppresses integrin αIIbβ3 activity in a dose-dependent manner
- integrin αIIbβ3 activity with inactive talin head THD-W359A (integrin αIIbβ3 [2]): No inhibitory effect
- cell toxicity (viability / cell growth), HeLa (HeLa cells): No impact; also recorded: minimal cell toxicity
- cell toxicity (viability / cell growth), MCF-7 (MCF-7 cells): No impact; also recorded: minimal cell toxicity
- impact on CHO cell growth (CHO cell): no impact
- Kd ([3]; FP assay, fluorophore-labeled peptide, purified recombinant talin head (residues 1-430), read-out: Kd, talin head domain): 30.3 ± 4.8 µM
- fold stronger binding to talin head than TBS ([3]; S-TBS versus TBS, from FP Kd values): 3.5 fold
- fluorescence signal of treated cells (peptide uptake) compared with fluorophore-labelled TBS (CHO-A5 cells; CHO cells, 1, 10 and 50 μM, 30 minutes at 37° C., FITC-labeled S-TBS): significantly stronger signal
- concentration giving significant cell uptake (CHO-A5 cells; CHO-A5 cells, lower doses, flow cytometry permeability index, fluorophore-labelled peptides): 500 nM
- cell toxicity (viability / cell growth), HEK (HEK-293 cells): No impact; also recorded: minimal cell toxicity
- impact on Jurkat T-cell growth (Jurkat T-cell): no impact

From patent publication US20240360186A1, “Treatment Of Integrin-Related Disorders With Stapled Peptides” (Institute For Cancer Research d/b/a The Research Institute …, priority 2021, published 2024)
